From US20240383874A1, “BENZENE RING DERIVATIVE, AND COMPOSITION AND PHARMACEUTICAL USE THEREOF” (Xizang Haisco Pharmaceutical Co., Ltd., priority 2020, published 2024) come the findings set out here.

One data set has as its system 22RV1 cells. In words: Experiment 2 on inhibiting 22RV1 cell proliferation (7 days, CellTiter-Glo). The format is cell-based. As to conditions: 1% css-FBS phenol red-free medium, incubated with compound 7 days, read-out: IC50 values on proliferation inhibition of 22RV1 cells. The method in brief:
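Survival measured by CellTiter-Glo after 7 days of compound exposure, normalised to DMSO controls, with IC50 fitted by dose-response. Cells (22RV1, 2000/well) were seeded overnight in 1% css-FBS phenol red-free medium before dosing.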
A general note: Cellular ATP, detected with luciferase, serves as a proxy for viable cell number.

Data set [1] can be described thus: Pharmacokinetic test in rats. The class given is in vivo. As to conditions: rat, po; male SD rats, single dose i.g. 5 mg/kg, plasma, 0-24 h. Here is the method:
Test objective: in this test, a single dose of test compounds was administered to SD rats intragastrically, and the concentrations of the test compounds in plasma of the rats were measured to evaluate pharmacokinetic characteristics of the test compounds in the rats.
Test animals: male SD rats, 200-250 g, 6-8 weeks old, 3 rats/compound, purchased from Chengdu Dossy Experimental Animals Co., Ltd.
Test method: on the day of the test, 3 SD rats were randomly grouped according to their body weights. The animals were fasted with water available for 12 to 14 hours one day before the administration of a test compound, and were fed 4 hours after the administration.
Sampling: before and after the administration, 0.1 mL of blood was taken from the orbits of the rats under isoflurane anesthesia, and placed in an EDTAK2 centrifuge tube. Centrifugation was carried out at 5000 rpm at 4C for […], and the plasma was collected.
Time points for plasma collection in G1 group: 0, 5 min, 15 min, 30 min, 1 h, 2 h, 4 h, 6 h, 8 h, and 24 h.
Before analysis and detection, all samples were stored at −80° C. The samples were analyzed quantitatively by LC-MS/MS.

Structures can show the parent of a compound that is named as a salt. Where two headings read alike, the source gives them in different places.

One may read the AUC(0-t) as the area under the concentration-time curve up to a stated or last time point. Read a low AUC(0-t) as low exposure. Regarding `CC(C)(c1ccc(OCc2ccnc(N3CCC(CN4CCC(C5CCN(c6ccc7c(c6)C(=O)N(C6CCC(=O)NC6=O)C7=O)CC5)CC4)CC3)n2)cc1)c1cc(Cl)cc(C#N)c1` (stereo not shown) [Compound 37 trifluoroacetate, 3-chloro-5-(2-(4-((2-(4-((1′-(2-(2,6-dioxopiperidin-3-yl)-1,3-dioxoisoindolin-5-yl)-[4,4′-bipiperidin]-1-yl)methyl)piperidin-1-yl)pyrimidin-4-yl)methoxy)phenyl)propan-2-yl)benzonitrile], in the data set with 22RV1 cells (Homo sapiens, 22Rv1, 168 h), the IC50 was determined as 507 nM. The same compound yielded an area under the curve AUC(0-t) in data set [1] of 867 ± 66 ng·h/mL.

Take `CC(C)(c1ccc(OCc2ccnc(N3CCC4(CC3)CN(CC3CCN(c5ccc6c(c5)C(=O)N(C5CCC(=O)NC5=O)C6=O)CC3)C4)n2)cc1)c1cc(Cl)cc(C#N)c1` (stereo not shown) [Compound 45, 3-chloro-5-(2-(4-((2-(2-((1-(2-(2,6-dioxopiperidin-3-yl)-1,3-dioxoisoindolin-5-yl)piperidin-4-yl)methyl)-2,7-diazaspiro[3.5]nonan-7-yl)pyrimidin-4-yl)methoxy)phenyl)propan-2-yl)benzonitrile]: in data set [1], the AUC(0-t) amounted to 452 ± 137 ng·h/mL.

On to `CC(C)(c1ccc(OCc2ccnc(N3CCC(CN4CCC(C5CCN(c6cc7c(cc6F)C(=O)N(C6CCC(=O)NC6=O)C7=O)CC5)CC4)CC3)n2)cc1)c1cc(Cl)cc(C#N)c1` (stereo not shown) [Compound 78, 3-chloro-5-(2-(4-((2-(4-((1′-(2-(2,6-dioxopiperidin-3-yl)-6-fluoro-1,3-dioxoisoindolin-5-yl)-[4,4′-bipiperidin]-1-yl)methyl)piperidin-1-yl)pyrimidin-4-yl)methoxy)phenyl)propan-2-yl)benzonitrile], for which the AUC(0-t) in data set [1] was 2350 ± 309 ng·h/mL.

In the case of `Cn1c(=O)n(C2CCC(=O)NC2=O)c2ccc(N3CCC(C4CCN(CC5CCN(c6nccc(COc7ccc(C(C)(C)c8cc(Cl)c(OCCCl)c(C#N)c8)cc7)n6)CC5)CC4)CC3)cc21` (stereo not shown) [Compound 98 trifluoroacetate, 3-chloro-2-(2-chloroethoxy)-5-(2-(4-((2-(4-((1′-(1-(2,6-dioxopiperidin-3-yl)-3-methyl-2-oxo-2,3-dihydro-1H-benzo[d]imidazol-5-yl)-[4,4′-bipiperidin]-1-yl)methyl)piperidin-1-yl)pyrimidin-4-yl)methoxy)phenyl)propan-2-yl)benzonitrile], the IC50 with 22RV1 cells (Homo sapiens, 22Rv1, 168 h) amounted to 621 nM. The compound also had an AUC(0-t) in data set [1] of 492 ± 266 ng·h/mL.

For `[2H]C([2H])([2H])Oc1c(Cl)cc(C(C)(C)c2ccc(OCc3ccnc(N4CCC(CN5CCC(C6CCN(c7ccc8c(c7)n(C)c(=O)n8C7CCC(=O)NC7=O)CC6)CC5)CC4)n3)cc2)cc1C#N` (stereo not shown) [Compound 99 trifluoroacetate, 3-chloro-5-(2-(4-((2-(4-((1′-(1-(2,6-dioxopiperidin-3-yl)-3-methyl-2-oxo-2,3-dihydro-1H-benzo[d]imidazol-5-yl)-[4,4′-bipiperidin]-1-yl)methyl)piperidin-1-yl)pyrimidin-4-yl)methoxy)phenyl)propan-2-yl)-2-(methoxy-d3)benzonitrile], the IC50 in the data set with 22RV1 cells (Homo sapiens, 22Rv1, 168 h) came to 427 nM. The same compound displayed an area under the curve AUC(0-t) in data set [1] of 541 ± 80 ng·h/mL.

Turning to `CCOc1c(Cl)cc(C(C)(C)c2ccc(OCc3ccnc(N4CCC(CN5CCC(C6CCN(c7ccc(C(=O)NC8CCC(=O)NC8=O)nc7)CC6)CC5)CC4)n3)cc2)cc1C#N` (stereo not shown) [Compound 111 trifluoroacetate, 5-(1′-((1-(4-((4-(2-(3-chloro-5-cyano-4-ethoxyphenyl)propan-2-yl)phenoxy)methyl)pyrimidin-2-yl)piperidin-4-yl)methyl)-[4,4′-bipiperidin]-1-yl)-N-(2,6-dioxopiperidin-3-yl)picolinamide], the IC50 in the data set with 22RV1 cells (Homo sapiens, 22Rv1, 168 h) worked out at 290 nM. This compound also showed an AUC(0-t) in data set [1] of 574 ± 59 ng·h/mL.

Consider `COc1c(Cl)cc(C(C)(C)c2ccc(OCc3ccnc(N4CCC(CN5CCC(C6CCN(c7ccc(C(=O)NC8CCC(=O)NC8=O)nc7)CC6)CC5)CC4)n3)cc2)cc1C#N` (stereo not shown) [Compound 112 trifluoroacetate, 5-(1′-((1-(4-((4-(2-(3-chloro-5-cyano-4-methoxyphenyl)propan-2-yl)phenoxy)methyl)pyrimidin-2-yl)piperidin-4-yl)methyl)-[4,4′-bipiperidin]-1-yl)-N-(2,6-dioxopiperidin-3-yl)picolinamide], for which the IC50 in the data set on 22RV1 cells (Homo sapiens, 22Rv1, 168 h) was determined as 463 nM. Moreover, in data set [1], the exposure AUC(0-t) came out at 827 ± 211 ng·h/mL.

As to `Cn1c(=O)n(C2CCC(=O)NC2=O)c2cccc(C3CCN(CC4(F)CCN(C5CC6(CCN(c7nccc(COc8ccc(C(C)(C)c9cc(Cl)cc(C#N)c9)cc8)n7)CC6)C5)CC4)CC3)c21` (stereo not shown) [Compound 115 trifluoroacetate, 3-chloro-5-(2-(4-((2-(2-(4-((4-(1-(2,6-dioxopiperidin-3-yl)-3-methyl-2-oxo-2,3-dihydro-1H-benzo[d]imidazol-4-yl)piperidin-1-yl)methyl)-4-fluoropiperidin-1-yl)-7-azaspiro[3.5]nonan-7-yl)pyrimidin-4-yl)methoxy)phenyl)propan-2-yl)benzonitrile], the IC50 in the data set with 22RV1 cells (Homo sapiens, 22Rv1, 168 h) is 955 nM.

Consider `CCOc1c(Cl)cc(C(C)(C)c2ccc(OCc3ccnc(N4CCC(CN5CCC6(CC5)CN(c5ccc7c(c5)n(C)c(=O)n7C5CCC(=O)NC5=O)C6)CC4)n3)cc2)cc1C#N` (stereo not shown) [Compound 118 trifluoroacetate, 3-chloro-5-(2-(4-((2-(4-((2-(1-(2,6-dioxopiperidin-3-yl)-3-methyl-2-oxo-2,3-dihydro-1H-benzo[d]imidazol-5-yl)-2,7-diazaspiro[3.5]nonan-7-yl)methyl)piperidin-1-yl)pyrimidin-4-yl)methoxy)phenyl)propan-2-yl)-2-ethoxybenzonitrile], for which, in data set [1], the AUC(0-t) worked out at 686 ± 336 ng·h/mL.

As to `COc1c(Cl)cc(C(C)(C)c2ccc(OCc3ccnc(N4CCC(CN5CCC(C6CCN(c7ccc(N8CCC(=O)NC8=O)cc7)CC6)CC5)CC4)n3)cc2)cc1C#N` [Compound 120, 3-chloro-5-(2-(4-((2-(4-((1′-(4-(2,4-dioxotetrahydropyrimidin-1(2H)-yl)phenyl)-[4,4′-bipiperidin]-1-yl)methyl)piperidin-1-yl)pyrimidin-4-yl)methoxy)phenyl)propan-2-yl)-2-methoxybenzonitrile], the AUC(0-t) in data set [1] is 1430 ± 209 ng·h/mL.

As to `CCOc1c(Cl)cc(C(C)(C)c2ccc(OCc3ccnc(N4CC5(CCC(N6CCC(c7ccc8c(c7)n(C)c(=O)n8C7CCC(=O)NC7=O)CC6)CC5)C4)n3)cc2)cc1C#N` (stereo not shown) [Compound 121 trifluoroacetate, 3-chloro-5-(2-(4-((2-(7-(4-(1-(2,6-dioxopiperidin-3-yl)-3-methyl-2-oxo-2,3-dihydro-1H-benzo[d]imidazol-5-yl)piperidin-1-yl)-2-azaspiro[3.5]nonan-2-yl)pyrimidin-4-yl)methoxy)phenyl)propan-2-yl)-2-ethoxybenzonitrile], in the data set on 22RV1 cells (Homo sapiens, 22Rv1, 168 h), the IC50 came out at 842 nM.

`Cn1c(=O)n(C2CCC(=O)NC2=O)c2ccc(C3CCN(C4CCC5(CC4)CN(c4nccc(COc6ccc(C(C)(C)c7cc(Cl)cc(C#N)c7)cc6)n4)C5)CC3)cc21` (stereo not shown) [Compound 122 trifluoroacetate, 3-chloro-5-(2-(4-((2-(7-(4-(1-(2,6-dioxopiperidin-3-yl)-3-methyl-2-oxo-2,3-dihydro-1H-benzo[d]imidazol-5-yl)piperidin-1-yl)-2-azaspiro[3.5]nonan-2-yl)pyrimidin-4-yl)methoxy)phenyl)propan-2-yl)benzonitrile]: the IC50 in the data set with 22RV1 cells (Homo sapiens, 22Rv1, 168 h) amounted to 1010 nM.

Take `COc1c(Cl)cc(C(C)(C)c2ccc(OCc3ccnc(N4CCC(CN5CCC(C6CCN(c7cc8c(cc7F)n(C7CCC(=O)NC7=O)c(=O)n8C)CC6)CC5)CC4)n3)cc2)cc1C#N` (stereo not shown) [Compound 123 trifluoroacetate, 3-chloro-5-(2-(4-((2-(4-((1′-(1-(2,6-dioxopiperidin-3-yl)-6-fluoro-3-methyl-2-oxo-2,3-dihydro-1H-benzo[d]imidazol-5-yl)-[4,4′-bipiperidin]-1-yl)methyl)piperidin-1-yl)pyrimidin-4-yl)methoxy)phenyl)propan-2-yl)-2-methoxybenzonitrile]: in the data set with 22RV1 cells (Homo sapiens, 22Rv1, 168 h), the IC50 is 527 nM. Further, the AUC(0-t) in data set [1] was determined as 1190 ± 724 ng·h/mL.

Consider `Cn1c(=O)n(C2CCC(=O)NC2=O)c2cccc(C3CCN(CC4(F)CCN(C5CCN(c6nccc(COc7ccc(C(C)(C)c8cc(Cl)cc(C#N)c8)cc7)n6)CC5)CC4)CC3)c21` (stereo not shown) [Compound 124 trifluoroacetate, 3-chloro-5-(2-(4-((2-(4-((4-(1-(2,6-dioxopiperidin-3-yl)-3-methyl-2-oxo-2,3-dihydro-1H-benzo[d]imidazol-4-yl)piperidin-1-yl)methyl)-4-fluoro-[1,4′-bipiperidin]-1′-yl)pyrimidin-4-yl)methoxy)phenyl)propan-2-yl)benzonitrile], for which the IC50 in the data set on 22RV1 cells (Homo sapiens, 22Rv1, 168 h) was 576 nM.

Consider `CC(Oc1ccc(C(C)(C)c2cc(Cl)cc(C#N)c2)cc1)c1ccnc(N2CCC(CN3CCC(C4CCN(c5cc6c(cc5F)C(=O)N(C5CCC(=O)NC5=O)C6=O)CC4)CC3)CC2)n1` (stereo not shown) [Compound 127, 3-chloro-5-(2-(4-(1-(2-(4-((1′-(2-(2,6-dioxopiperidin-3-yl)-6-fluoro-1,3-dioxoisoindolin-5-yl)-[4,4′-bipiperidin]-1-yl)methyl)piperidin-1-yl)pyrimidin-4-yl)ethoxy)phenyl)propan-2-yl)benzonitrile], for which the IC50 with 22RV1 cells is 549 nM. Moreover, the area under the curve AUC(0-t) in data set [1] came to 1860 ± 185 ng·h/mL.
